Assay results published in ChEMBL document CHEMBL1130031, “Binding affinities for sulfonamide inhibitors with human thrombin using Monte Carlo simulations with a linear response method” (J Med Chem, 1997).

Each molecule was assayed against Prothrombin (Homo sapiens, UniProt P00734) (assay: Inhibition constant against human thrombin).
Molecule `CC1CNc2c(cccc2S(=O)(=O)N[C@@H](CCCNC(N)N)C(=O)N2CCCCC2)C1` (stereo partly specified) has a Ki of 130 nM.
With `CC1CNc2c(cccc2S(=O)(=O)N[C@@H](CCCNC(N)N)C(=O)N2CC[C@H](C)C[C@@H]2C(=O)O)C1` (stereo in doubt; 1b) the Ki was 1900 nM.
`CC1CNc2c(cccc2S(=O)(=O)N[C@@H](CCCNC(N)N)C(=O)N2CC[C@@H](C)C[C@@H]2C(=O)O)C1` (stereo partly specified) gave a Ki of 19 nM.
For `CC1CNc2c(cccc2S(=O)(=O)N[C@@H](CCCNC(N)N)C(=O)N2CC[C@H](C)C[C@@H]2C(=O)O)C1` (stereo in doubt; 1c), the Ki was 280000 nM.
Work on `CC1CCN(C(=O)[C@H](CCCNC(N)N)NS(=O)(=O)c2cccc3c2NCC(C)C3)CC1` (stereo partly specified) yielded a Ki of 30 nM.
Work on `CC1CNc2c(cccc2S(=O)(=O)N[C@@H](CCCNC(N)N)C(=O)N2CC[C@H](C)C[C@@H]2C(=O)O)C1` (stereo in doubt; 1g) yielded a Ki of 240 nM.
